We go through three compounds from US20210181180A1, “METHOD FOR IDENTIFYING MALODOUR COUNTERACTANTS” (TAKASAGO INTERNATIONAL CORPORATION, priority 2016, published 2021).

The structures appear in SMILES notation.

The target in this assay is T1, OR4E2 (Homo sapiens, UniProt Q8NGC2, Q234R/V118M).
T1 construct: expressed in transfected cells; host or cells: HEK293T cells expressing hRTP1s, transiently transfected with pcDNA5-OR4E2 and pNL(NlucP/CRE/Hygro)
T1 sequence (Q8NGC2 1-313 V118M/Q234R): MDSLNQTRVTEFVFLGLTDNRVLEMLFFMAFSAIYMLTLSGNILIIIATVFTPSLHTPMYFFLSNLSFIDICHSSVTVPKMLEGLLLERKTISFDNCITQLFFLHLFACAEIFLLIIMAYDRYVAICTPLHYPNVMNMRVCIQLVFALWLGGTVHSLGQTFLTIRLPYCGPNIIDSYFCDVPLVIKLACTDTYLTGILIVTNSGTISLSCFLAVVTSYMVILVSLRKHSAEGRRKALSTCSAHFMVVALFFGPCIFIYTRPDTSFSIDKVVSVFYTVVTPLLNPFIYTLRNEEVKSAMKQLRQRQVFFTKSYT
As to the kind of experiment: OR4E2 CRE-NanoLuc luciferase reporter assay in transiently transfected HEK293T cells. Format: cell-based. As to conditions: for response of OR4E2 to increasing concentrations of sulphur odorant (OR4E2 activation): seven concentrations 3-300 μM, 4 hours stimulation, luciferase activity, FIGS. 1A and 1B. On the procedure:
The experiments were performed using HEK293T cells (available e.g. from GE Healthcare) […] expressing the auxiliary protein hRTP1s, essential for efficient receptor trafficking to the plasma membrane (NPL 10, NPL 11; and NPL 12). The cell line was maintained in Dulbecco's modified Eagle Medium (DMEM, Euroclone) supplemented with 10% FBS (Fetal Bovine Serum, Euroclone cat. ECS0180L), 1% Penicillin/Streptomycin (Euroclone cat. B3001D), 50 μg/mL G418, […], and 10 μg/mL Zeocin.
The cDNA for OR4E2 was generated by custom gene synthesis (LifeTechnologies). The receptor DNA was then subcloned in frame 3′ from a transmembrane, localization epitope into a pcDNA5 expression vector (NPL 13). The correct identity of the receptor was checked by automated sequencing.
All sulphur odorants were prepared as 100 mM stock solutions using DMSO as a solvent and stored at −20″C. Copper(II) sulfate was prepared as an aqueous 30 mM stock solution. […]
The cDNA for the OR4E2 receptor was co-transfected with pNL(NlucP/CRE/Hygro) (Promega). […] The enzyme is about 100-fold brighter than either firefly (Photinus pyralis) or Renilla reniformis luciferase using a novel substrate, furimazine, to produce high intensity, glow-type luminescence. […]
24 hours post-transfection the medium was removed from the transfected cells and 30 μL of Tyrode's buffer containing the diluted sulphur odorant were added over 4 hours at 37° C. The cells were then transferred into an automated fluorometric imaging plate reader (FLIPR Tetra (registered trademark), Molecular Devices). […]
The data obtained from different well replicates (n=4) were analysed with Excel, ScreenWorks, and SigmaPiot 11, The responses of the receptor to the sulphur odorants were divided by the mean responses of the receptor towards Tyrode's buffer (fold of change: FOC). The mean and standard deviation of the resulting FOC values were calculated and plotted in vertical bar charts or concentration-response curves fitted by the SigmaPlot 11 software. […]

For `CSCSC` [2,4-dithiapentane], under “used at 300 μM as activating sulphur odorant in Example 2”, the OR4E2 activator entry is on record as “OR4E2 activator”.

With `CC(C)(S)CCO` [3-mercapto-3-methylbutanol], the “response of OR4E2 to increasing concentrations of sulphur odorant (OR4E2 activation)” value was “positive effect”.

Take `C=CCSSSCC=C` [diallyl trisulfide]: the “response of OR4E2 to increasing concentrations of sulphur odorant (OR4E2 activation)” value is given as “positive effect”.
